Holding throughout (assay type): cell-based
The test system of assay [1] is NSCLC cell lines. Briefly: Apoptosis-associated changes by DiOC63 (Δψm) and propidium iodide (viability) staining. An excerpt:
The fluorochromes, 3,3′-dihexyloxacarbocyanine iodide (DiOC63) and propidium iodide (PI) were employed to determine different apoptosis-associated changes. DiOC63 was used for the loss of mitochondrial transmembrane potential (Δψm) and PI was used for the loss of viability.

Assay [2] relates to NSCLC cell lines. In words: Anti-proliferative/pro-apoptotic effects in NSCLC cell lines with different EGFR and p53 mutation status. The protocol:
(§1) Non-Small Cell Lung Cancer cell lines with different EGFR and p53 mutation status were used. Variable doses of Compound I or cisplatin were used to induce death or proliferative death of the cells. A549 cells were transfected with siRNAs, and transfected cells were cultured for 48 hours prior to the administration of the drugs to attain the maximal down-regulation of the target proteins.

For the next assay, the system named is A549 cells. Briefly: siRNA knockdown of apoptosis pathway components in A549 cells, Compound I induced cell death. The protocol: as §1

The source of these data is patent US20100136137A1, “THERAPEUTIC COMBINATION OF A PANHER/VEGFR2 KINASE INHIBITOR AND A PLATINUM COMPOUND” (Bristol-Meyers Squibb Company, priority 2006, published 2010).

As to `COc1cccc(Nc2ncnn3ccc(CN4CC[C@@H](N)[C@H](O)C4)c23)c1` [Compound I, 4-Amino-1-[[4-[(3-methoxyphenyl)amino]pyrrolo [2,1-f][1,2,4]triazin-5-yl]methyl]-(3R,4R)-3-piperidinol], the “dissipation of Δψm (marker of early apoptosis)” value with NSCLC cell lines [1] (DiOC63 staining) was “induced dissipation of Δψm”. Further, the “incorporation of PI (marker of late apoptosis, loss of viability)” value in the assay with NSCLC cell lines [1] (propidium iodide staining) is reported as “incorporation of PI”. In the assay with NSCLC cell lines [1] (with z-VAD.fmk), the “effect of pan-caspase inhibitor z-VAD.fmk on the loss of viability” value is recorded as “no effect” and the “effect of pan-caspase inhibitor z-VAD.fmk on the reduction of the Δψm” value was “only a minor protective effect”. Further, the “order of sensitivity of cell lines” value with NSCLC cell lines [2] (NCI-H1975, NCI-H1650, NCIH1299, A549) is “NCI-H1975>>NCI-H1650=NCIH1299>A549”. For the same molecule, in the assay on NSCLC cell lines [2] (all NSCLC cell lines tested, including wild-type EGFR and T790M mutant), the anti-proliferative/pro-apoptotic effects result is “induced anti-proliferative/pro-apoptotic effects in all NSCLC cell lines tested”. Further, the “effect of caspase-2 down-regulation on Compound I induced cell-death” value in the assay with A549 cells (24 and 48 hours) is “limited protection against Compound I induced cell-death at 24 hours, but not at 48 hours”. In the assay with A549 cells (both 24 and 48 hours), the “effect of Bcl-2 down-regulation, alone or in combination with Bcl-XL, on the effect of Compound I” value is reported as “strongly sensitized A549 cells”.
